Measured values reported in publication PMC7959488, “Identify potent SARS-CoV-2 main protease inhibitors via accelerated free energy perturbation-based virtual screening of existing drugs” (Proceedings of the National Academy of Sciences of the …, 2020).
Structures can show the parent of a compound that is named as a salt. Where two headings read alike, the source gives them in different places.

Key:
human factor Xa = settings: experimental binding free energy; ligand named by PDB code of its complex; cited from earlier work
SARS-CoV-2 M^pro [1] = target: T1, SARS-CoV-2 M^pro (Severe acute respiratory syndrome coronavirus 2, UniProt P0DTD1)
SARS-CoV-2 M^pro [2] = target: T1, SARS-CoV-2 M^pro; settings: for UEMM-GBSA: unsigned error |ΔGMM-GBSA − ΔGexp|; for UEMM-PBSA: unsigned error |ΔGMM-PBSA − ΔGexp|
SARS-CoV-2 M^pro [3] = target: T1, SARS-CoV-2 M^pro; assay: biochemical
HIV-1 protease = settings: experimental binding free energy; ligand named by PDB code of its complex; cited from earlier work
BRD4 = test system: BRD4; parameters: method as in Aldeghi et al. (18); settings: experimental binding free energy; ligand named by PDB code of its complex; ref Aldeghi et al. (18); cited from earlier work
[4] = calculated from corresponding Ki values
[5] = converted from IC50 based on the assumption of the competitive inhibition without covalent binding, read-out: Ki
[6] = substrate concentration 20 µM, 500 nM enzyme, ∼50 values estimated from single-concentration assay, read-out: IC50

In the case of CN1CCN=C1c1cccc(Oc2nc(Oc3cc(C(=N)N)ccc3O)c(F)c(N(C)CC(=O)O)c2F)c1 [1FJS], the “∆Gexp” value (human factor Xa) is given as -13.6 kcal/mol.

CC(=O)OCC(=O)NCCCOc1cccc(CN2CCCCC2)c1 [Roxatidine acetate hydrochloride] showed a UEFEP-ABFE (SARS-CoV-2 M^pro [1]) of 0.8 kcal/mol, a UEMM-GBSA (SARS-CoV-2 M^pro [2]) of 22.5 kcal/mol and a UEMM-PBSA (SARS-CoV-2 M^pro [2]) of 21.2 kcal/mol. For the same compound, the ΔGexp (SARS-CoV-2 M^pro [3]; [4]) was -8.0 kcal/mol, the Ki (SARS-CoV-2 M^pro [3]; [5]) was 1.33 ± 0.02 µM and the IC50 (SARS-CoV-2 M^pro [3]; [6]) was 20.3 ± 0.4 µM.

In the case of O=C(NCc1ccccc1)[C@H](OCc1ccccc1)[C@H](O)[C@@H](O)[C@@H](OCc1ccccc1)C(=O)N[C@H]1c2ccccc2C[C@H]1O [1D4H], the “∆Gexp” value (HIV-1 protease) is listed as -13.6 kcal/mol.

Work on COc1ccc2[nH]c([S+]([O-])Cc3ncc(C)c(OC)c3C)nc2c1 (centres unmarked) [Omeprazole] yielded a UEFEP-ABFE (SARS-CoV-2 M^pro [1]) of 1.6 kcal/mol, a UEMM-GBSA (SARS-CoV-2 M^pro [2]) of 16.4 kcal/mol and a UEMM-PBSA (SARS-CoV-2 M^pro [2]) of 14.3 kcal/mol. For the same compound, the IC50 (SARS-CoV-2 M^pro [3]) was 21 ± 1 µM, the Ki (SARS-CoV-2 M^pro [3]) was 1.37 ± 0.06 µM and the ΔGexp (SARS-CoV-2 M^pro [3]; [4]) was -8.0 kcal/mol.

For O=C(Cn1cnc(NC(=O)c2ccc(Cl)s2)n1)Nc1ccc(-n2ccccc2=O)cc1F [2VVV], the “∆Gexp” value (human factor Xa) is listed as -11.2 kcal/mol.

In the case of COc1cc(OC)c2c(=O)[nH]c(-c3cc(C)c(O)c(C)c3)nc2c1 [4MR3], the “∆Gexp” value (BRD4) is given as -9.0 kcal/mol.

In the case of Cc1nnc2n1-c1ccc(Cl)cc1C(c1ccccc1)=NN2C [3U5L], the “∆Gexp” value (BRD4) is given as -8.2 kcal/mol.

For CNC(=O)[C@@H](NC(=O)[C@H](OCc1ccccc1)[C@H](O)[C@@H](O)[C@@H](OCc1ccccc1)C(=O)N[C@H]1c2ccccc2C[C@H]1O)C(C)C [1EBZ], the “∆Gexp” value (HIV-1 protease) is given as -12.8 kcal/mol.

In the case of CN1Cc2cc(Br)ccc2NC1=O [4HBV], the “∆Gexp” value (BRD4) is listed as -6.3 kcal/mol.

In the case of Cc1nnc2n1-c1ccc(Cl)cc1C(c1ccccc1)=NC2 [3U5J], the “∆Gexp” value (BRD4) is listed as -7.4 kcal/mol.

CC(C)[C@H](N)C(=O)OCCOCn1cnc2c(=O)[nH]c(N)nc21 [Valacyclovir hydrochloride] gave a UEFEP-ABFE (SARS-CoV-2 M^pro [1]) of 1.9 kcal/mol, a UEMM-GBSA (SARS-CoV-2 M^pro [2]) of 10.2 kcal/mol and a UEMM-PBSA (SARS-CoV-2 M^pro [2]) of 12.7 kcal/mol. The ΔGexp (SARS-CoV-2 M^pro [3]; [4]) was -8.1 kcal/mol, the Ki (SARS-CoV-2 M^pro [3]; [5]) was 1.09 ± 0.06 µM and the IC50 (SARS-CoV-2 M^pro [3]; [6]) was 16.7 ± 0.9 µM.

In the case of O=C(N[C@H]1c2ccccc2C[C@H]1O)[C@H](OCc1ccccc1)[C@H](O)[C@@H](O)[C@@H](OCc1ccccc1)C(=O)N[C@H]1c2ccccc2C[C@H]1O [1EBY], the “∆Gexp” value (HIV-1 protease) is given as -13.2 kcal/mol.

Compound CC(C)[C@H](N)C(=O)OCC(CO)OCn1cnc2c(=O)nc(N)[nH]c21 (some centres unmarked) [Valganciclovir Hydrochloride] has a Ki (SARS-CoV-2 M^pro [3]; [5]) of 1.09 ± 0.06 µM.

Compound CN(C)[C@@H]1C(O)=C(C(N)=O)C(=O)[C@@]2(O)C(O)=C3C(=O)c4c(O)cccc4[C@@](C)(O)[C@H]3[C@H](O)[C@@H]12 [Oxytetracycline] has a UEFEP-ABFE (SARS-CoV-2 M^pro [1]) of 0.6 kcal/mol, a UEMM-GBSA (SARS-CoV-2 M^pro [2]) of 6.4 kcal/mol and a UEMM-PBSA (SARS-CoV-2 M^pro [2]) of 1.8 kcal/mol. For the same compound, the ΔGexp (SARS-CoV-2 M^pro [3]; [4]) was -8.2 kcal/mol, the Ki (SARS-CoV-2 M^pro [3]; [5]) was 0.99 ± 0.06 µM and the IC50 (SARS-CoV-2 M^pro [3]; [6]) was 15.2 ± 0.9 µM.

For CC(=O)N[C@@H](C)C(=O)N[C@@H](Cc1ccccc1)[C@H](O)CN(Cc1cccs1)S(=O)(=O)c1cc(F)c(F)cc1F [2QHY], the “∆Gexp” value (HIV-1 protease) is given as -10.2 kcal/mol.

In the case of Cc1noc(C)c1-c1cc(O)cc(C(O)c2ccccc2)c1 (centres unmarked) [4J0R], the “∆Gexp” value (BRD4) is listed as -8.8 kcal/mol.

In the case of COc1ccc(-n2nc(C(N)=O)c3c2C(=O)N(c2ccc(N4CCCCC4=O)cc2)CC3)cc1 [2P16], the “∆Gexp” value (human factor Xa) is listed as -13.8 kcal/mol.

For CCOc1cc(-c2c(C)noc2C)cc(C(C)O)c1 (centres unmarked) [3SVG], the “∆Gexp” value (BRD4) is given as -7.3 kcal/mol.

CN/C(=N/CCSCc1nc[nH]c1C)NC#N [Cimetidine] showed a UEFEP-ABFE (SARS-CoV-2 M^pro [1]) of 1.4 kcal/mol, a UEMM-GBSA (SARS-CoV-2 M^pro [2]) of 20.3 kcal/mol and a UEMM-PBSA (SARS-CoV-2 M^pro [2]) of 18.7 kcal/mol. It also gave an IC50 (SARS-CoV-2 M^pro [3]) of about 50 µM, a Ki (SARS-CoV-2 M^pro [3]) of about 3.27 µM and a ΔGexp (SARS-CoV-2 M^pro [3]) of -7.5 kcal/mol.
